IC50 data for 25 compounds are collected here from US20200069691A1, “HETEROCYCLIC COMPOUNDS AS HIV PROTEASE INHIBITORS” (Merck Sharp & Dohme Corp., priority 2016, published 2020).

For orientation: IC50 means the concentration needed to halve the response being measured.

Structures are written as SMILES.

This experiment has as its target T1, wild-type HIV-1 protease (Human immunodeficiency virus type 1 group M subtype B, UniProt P04585).
T1 construct: Escherichia coli expressed wild-type HIV-1 protease protein
The experiment is described as follows: Assay for Inhibition of Microbial Expressed HIV Protease (peptide substrate cleavage, LC-MS/MS readout). It counts as biochemical. The note with it: E. coli expressed wild-type HIV-1 protease, mean of at least two independent experiments, read-out: HIV Pr Enzyme HIV1 PR IC50. Put shortly:
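Cleavage of Val-Ser-Gln-Asn-(β-naphthyl)Ala-Pro-Ile-Val (400 μM) by recombinant HIV-1 protease ([…]) ran 1 h at 30 °C after a 30 min room-temperature inhibitor preincubation in 50 mM sodium acetate pH 5.5. Product peak areas by LC-MS/MS gave inhibition; values average at least two independent runs.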

With `CN1CCN(C(=O)c2cc(F)cc(CN3C(=N)NC(c4ccccc4)(c4ccccc4)C3=O)c2)CC1=O` [Compound 353, 4-({3-fluoro-5-[(2-imino-5-oxo-4,4-diphenylimidazolidin-1-yl)methyl]phenyl}carbonyl)-1-methylpiperazin-2-one], the IC50 is 88.8 nM.

For the compound `N=C1N[C@](CCCC(F)(F)F)(c2ccc(F)cc2)C(=O)N1Cc1ccc(C(F)(F)F)c(C(=O)N2Cc3cnc(-c4ccc5cnccc5c4)nc3C2)c1` [Compound 55, (5R)-5-(4-fluorophenyl)-2-imino-3-{3-[(2-isoquinolin-6-yl-5,7-dihydro-6H-pyrrolo[3,4-d]pyrimidin-6-yl)carbonyl]-4-(trifluoromethyl)-benzyl}-5-(4,4,4-trifluorobutyl)-imidazolidin-4-one], the IC50 turned out to be 5.99 nM.

Take `CN1CCN(C(=O)c2cccc(CN3C(=N)NC(c4ccccc4)(c4ccccc4)C3=O)c2)CC1=O` [Compound 358, 4-({3-[(2-imino-5-oxo-4,4-diphenylimidazolidin-1-yl)methyl]phenyl}carbonyl)-1-methylpiperazin-2-one]: the IC50 is 93.6 nM.

For `COC(=O)Nc1ncc2c(n1)CN(C(=O)c1ccc3c(c1)[C@H](N1C(=N)N[C@](CCC(C)C)(c4ccccc4)C1=O)CCC3)C2` [Compound 81, methyl [6-({(8R)-8-[(4R)-2-imino-4-(3-methylbutyl)-5-oxo-4-phenylimidazolidin-1-yl]-5,6,7,8-tetrahydronaphthalen-2-yl}carbonyl)-6,7-dihydro-5H-pyrrolo[3,4-d]pyrimidin-2-yl]carbamate], the IC50 worked out at 12 nM.

As to `CC(C)CC1(c2ccccc2)NC(=N)N(Cc2ccc(Cl)c(C(=O)N3Cc4cccnc4C3)c2)C1=O` (stereo not shown) [Compound 366, 3-[4-chloro-3-(5,7-dihydro-6H-pyrrolo[3,4-b]pyridin-6-ylcarbonyl)benzyl]-2-imino-5-(2-methylpropyl)-5-phenylimidazolidin-4-one], the IC50 turned out to be 5.08 nM.

In the case of `N=C1NC(c2ccc(F)cc2)(c2ccc(F)cc2)C(=O)N1Cc1cncc(C(=O)N2CCC(n3c(=O)[nH]c4ccccc43)CC2)c1` [Compound 392, 1-{1-[(5-{[4,4-bis(4-fluorophenyl)-2-imino-5-oxoimidazolidin-1-yl]methyl}pyridin-3-yl)carbonyl]piperidin-4-yl}-1,3-dihydro-2H-benzimidazol-2-one], the IC50 was found to be 61.7 nM.

As for `N=C1NC(CCC2CC2)(c2ccc(C(F)(F)F)cc2)C(=O)N1Cc1ccc(C(F)(F)F)c(C(=O)N2CCn3c(nnc3C(F)(F)F)C2)c1` (stereo not shown) [Compound 125, 5-(2-cyclopropylethyl)-2-imino-5-[4-(trifluoromethyl)phenyl]-3-[4-(trifluoromethyl)-3-{[3-(trifluoromethyl)-5,6-dihydro-[1,2,4]triazolo[4,3-a]pyrazin-7(8H)-yl]carbonyl}benzyl] imidazolidin-4-one], the IC50 came out at 57.2 nM.

Regarding `Cc1nc2c([nH]1)CN(C(=O)c1cccc(CN3C(=N)NC(CC(C)C)(c4ccccc4)C3=O)c1)C2` (stereo not shown) [Compound 274, 2-imino-3-{3-[(2-methyl-4,6-dihydropyrrolo[3,4-d]imidazol-5(1H)-yl)carbonyl]benzyl}-5-(2-methylpropyl)-5-phenylimidazolidin-4-one], the IC50 worked out at 28.8 nM.

As for `N=C1NC(c2ccccc2)(c2ccccc2)C(=O)N1Cc1cccc(C(=O)N2CCn3ccnc3C2)c1` [Compound 339, 3-[3-(5,6-dihydroimidazo[1,2-a]pyrazin-7(8H)-ylcarbonyl)benzyl]-2-imino-5,5-diphenylimidazolidin-4-one], the IC50 was found to be 75.8 nM.

`CN(C)S(=O)(=O)c1cccc(-c2ncc3c(n2)CN(C(=O)c2cc(CN4C(=N)N[C@](CCCC(F)(F)F)(c5ccc(F)cc5)C4=O)ccc2C(F)(F)F)C3)c1` [Compound 66, 3-(6-{[5-{[(4R)-4-(4-fluorophenyl)-2-imino-5-oxo-4-(4,4,4-trifluorobutyl)imidazolidin-1-yl]methyl}-2-(trifluoromethyl)-phenyl]carbonyl}-6,7-dihydro-5H-pyrrolo[3,4-d]pyrimidin-2-yl)-N,N-dimethylbenzene-sulfonamide]: the IC50 was 7.73 nM.

As for `CC(C)CCC1(c2ccc(F)cc2)NC(=N)N(Cc2cccc(C(=O)N3Cc4nccnc4C3)c2)C1=O` (stereo not shown) [Compound 252, 3-[3-(5,7-dihydro-6H-pyrrolo[3,4-b]pyrazin-6-ylcarbonyl)benzyl]-5-(4-fluorophenyl)-2-imino-5-(3-methylbutyl)imidazolidin-4-one], the IC50 was determined as 19.8 nM.

Regarding `N=C1NC(CCC2CC2)(c2ccc(-c3cccnc3)cc2)C(=O)N1Cc1ccc(C(F)(F)F)c(C(=O)N2Cc3nccnc3C2)c1` (stereo not shown) [Compound 76, 5-(2-cyclopropylethyl)-3-[3-(5,7-dihydro-6H-pyrrolo[3,4-b]pyrazin-6-ylcarbonyl)-4-(trifluoromethyl-)benzyl]-2-imino-5-(4-pyridin-3-ylphenyl) imidazolidin-4-one], the IC50 stood at 10.4 nM.

As to `N=C1NC(CCC2CC2)(c2cccc(F)c2)C(=O)N1Cc1ccc(C(F)(F)F)c(C(=O)N2CCn3c(nnc3C(F)(F)F)C2)c1` (stereo not shown) [Compound 78, 5-(2-cyclopropylethyl)-5-(3-fluorophenyl)-2-imino-3-[4-(trifluoromethyl)-3-{[3-(trifluoro-methyl)-5,6-dihydro-[1,2,4]triazolo-[4,3-a]pyrazin-7(8H)-yl]carbonyl}-benzyl]imidazolidin-4-one], the concentration for half-maximal inhibition (IC50) was 10.5 nM.

Regarding `COC(=O)N1CCN(C(=O)c2cccc(CN3C(=N)NC(CCC(C)C)(c4ccc(F)cc4)C3=O)c2)CC1` (stereo not shown) [Compound 239, methyl 4-[(3-{[4-(4-fluorophenyl)-2-imino-4-(3-methylbutyl)-5-oxoimidazolidin-1-yl]methyl}phenyl)carbonyl] piperazine-1-carboxylate], the IC50 amounted to 15.1 nM.

As for `C[C@H](c1cccc(C(=O)N2Cc3cncnc3C2)c1)N1C(=N)NC(c2ccccc2)(c2ccccc2)C1=O` [Compound 228, 3-{(1R)-1-[3-(5,7-dihydro-6H-pyrrolo[3,4-d]pyrimidin-6-ylcarbonyl)phenyl]ethyl}-2-imino-5,5-diphenylimidazolidin-4-one], the IC50 was 13.1 nM.

`CC(C)CC(c1ccc(C(F)(F)F)c(C(=O)N2Cc3nccnc3C2)c1)N1C(=N)N[C@](CC2CCOCC2)(c2ccc(F)cc2)C1=O` (stereo partly drawn) [Compound 14, (5R)-3-{1-[3-(5,7-dihydro-6H-pyrrolo[3,4-b]pyrazin-6-ylcarbonyl)-4-(trifluoromethyl)phenyl]-3-methylbutyl}-5-(4-fluorophenyl)-2-imino-5-(tetrahydro-2H-pyran-4-ylmethyl)imidazolidin-4-one]: the IC50 turned out to be 1.77 nM.

Take `N#Cc1ncc2c(n1)CN(C(=O)c1cc(CN3C(=N)NC(c4ccccc4)(c4ccccc4)C3=O)ccc1C(F)(F)F)C2` [Compound 136, 6-({5-[(2-imino-5-oxo-4,4-diphenylimidazolidin-1-yl)methyl]-2-(trifluoromethyl)phenyl}-carbonyl)-6,7-dihydro-5H-pyrrolo[3,4-d]pyrimidine-2-carbonitrile]: the IC50 was found to be 1.81 nM.

As for `CC(C)CC1(c2ccccc2)NC(=N)N(Cc2cccc(C(=O)N3CCN(c4ncccn4)CC3)c2)C1=O` (stereo not shown) [Compound 303, 2-imino-5-(2-methylpropyl)-5-phenyl-3-{3-[(4-pyrimidin-2-ylpiperazin-1-yl)carbonyl]benzyl} imidazolidin-4-one], the IC50 was 45.9 nM.

Consider `N=C1NC(c2ccc(F)cc2)(c2ccc(F)cc2)C(=O)N1Cc1cccc(C(=O)N2Cc3cc(F)c(F)cc3C2)c1` [Compound 197, 3-{3-[(5,6-difluoro-l,3-dihydro-2H-isoindol-2-yl)carbonyl]benzyl}-5,5-bis(4-fluorophenyl)-2-iminoimidazolidin-4-one], for which the IC50 is 5.25 nM.

With `N=C1NC(c2ccc(F)cc2)(c2ccc(F)cc2)C(=O)N1Cc1ccc(Cl)c(C(=O)N2Cc3ccc(F)cc3C2)c1` [Compound 377, 3-{4-chloro-3-[(5-fluoro-1,3-dihydro-2H-isoindol-2-yl)carbonyl]benzyl}-5,5-bis(4-fluorophenyl)-2-iminoimidazolidin-4-one], the IC50 worked out at 10 nM.

Take `N=C1NC(c2ccc(F)cc2)(c2ccc(F)cc2)C(=O)N1Cc1cccc(C(=O)N2CCC(n3c(=O)oc4ccccc43)CC2)c1` [Compound 319, 3-{1-[(3-{[4,4-bis(4-fluorophenyl)-2-imino-5-oxoimidazolidin-1-yl]methyl}phenyl)carbonyl]piperidin-4-yl}-1,3-benzoxazol-2(3H)-one]: the IC50 turned out to be 56.2 nM.

Take `CN(C)c1ncnc2c1CN(C(=O)c1cccc(CN3C(=N)NC(c4ccc(F)cc4)(c4ccc(F)cc4)C3=O)c1)C2` [Compound 220, 3-(3-{[4-(dimethylamino)-5,7-dihydro-6H-pyrrolo[3,4-d]pyrimidin-6-yl]carbonyl}benzyl)-5,5-bis(4-fluorophenyl)-2-iminoimidazolidin-4-one]: the IC50 stood at 11 nM.

As for `N=C1NC(c2ccccc2)(c2ccccc2)C(=O)N1Cc1cccc(C(=O)N2CCn3c(nnc3C(F)(F)F)C2)c1` [Compound 291, 2-imino-5,5-diphenyl-3-(3-{[3-(trifluoromethyl)-5,6-dihydro[1,2,4]triazolo[4,3-a]pyrazin-7(8H)-yl]carbonyl}benzyl) imidazolidin-4-one], the IC50 amounted to 37.9 nM.

Take `CC(C)CC1(c2ccccc2)NC(=N)N(Cc2ccc(Cl)c(C(=O)N3Cc4cncnc4C3)c2)C1=O` (stereo not shown) [Compound 373, 3-[4-chloro-3-(5,7-dihydro-6H-pyrrolo[3,4-d]pyrimidin-6-ylcarbonyl)benzyl]-2-imino-5-(2-methylpropyl)-5-phenylimidazolidin-4-one]: the IC50 was found to be 6.93 nM.

Take `COc1ccc(CN2C(=N)NC(c3ccccc3)(c3ccccc3)C2=O)cc1C(=O)N1Cc2cncnc2C1` [Compound 387, 3-[3-(5,7-dihydro-6H-pyrrolo[3,4-d]pyrimidin-6-ylcarbonyl)-4-methoxybenzyl]-2-imino-5,5-diphenylimidazolidin-4-one]: the concentration for half-maximal inhibition (IC50) stood at 32.2 nM.
